Measured values taken from patent publication US5464826A, “Method of treating tumors in mammals with 2',2'-difluoronucleosides” (Eli Lilly and Company, priority 1994, dated 1995).

Assays:
[1] = tested on: CA755 adenocarcinoma; assay: CA755 adenocarcinoma tumor model; type: in vivo, mice (C57BL/6); details: IP, Days 1,5,9
Excerpt: CA755--The adenocarcinoma 755 is an undifferentiated mammary carcinoma which was obtained in 1980 from the Division of Cancer Treatment, N.C.I., tumor bank maintained at E.G. and G. Mason Research (Worchester, Mass.). First passage tumor was stored in liquid nitrogen using standard techniques. The transplanted tumor was re-established from the tumor bank every six months or as needed. The tumor is maintained by serial passage once a week in C57BL/6 female mice (Jackson Laboratory; Bar Harbor, Me.).
(§1) The tumor was removed from passage animals and minced into 1 to 3 mm square fragments using sterile techniques. Tumor pieces were checked for sterility using both Antibiotic Medium 1 and Brain Heart Infusion (Difco; Detroit, Mich.). Recipient mice were shaved and tumor pieces were implanted subcutaneously in the axillary region by trocar. Drug therapy on the appropriate schedule was initiated on the day after tumor implant. The compound was dissolved in saline for all experiments. All animals were weighed at the beginning and end of drug treatment. Food and water were provided ad libitum. On days 10 to 12, two dimensional measurements (width and length) of all tumors were taken using vernier calipers. Tumor weights were calculated from these measurements using the following formula:
(§2) Tumor Weight (mg)=Tumor Length (mm)×Tumor Width (mm)^2 /2
(§3) For all data, the tumor weight was rounded to the nearest tenth of a gram for analysis. No group is included in the analysis for therapeutic activity in which deaths attributable to drug toxicity exceeded 30 percent of the treated group.
(§4) In Table 3 which follows, column 1 gives the example number of the compound tested; column 2 provides the tumor system; column 3, the dose level; column 4, the route administered; column 5, the dosage schedule; column 6, the percent inhibition of the tumor; and column 7, the toxic deaths observed prior to completion of the study.

[2] = tested on: 6C3HED lymphosarcoma; assay: 6C3HED lymphosarcoma tumor model; type: in vivo, mice (C3H); details: IP
Excerpt: 6C3HED--The 6C3HED lymphosarcoma was obtained in 1979 from the Division of Cancer Treatment, N.C.I., tumor bank maintained at E.G. and G. Mason Research (Worchester, Mass.). First passage tumor was stored in liquid nitrogen using standard techniques. The transplanted tumor was re-established from the tumor bank every six months or as needed. The tumor is maintained by serial passage twice weekly in C3H mice (Charles River; Wilmington, Mass.).
as §1, §2, §3, §4

[3] = tested on: 6C3HED, CA755, P1534J, X5563; assay: additional tumor test systems (summary statement); type: in vivo, mice; details: systems include 6C3HED
Excerpt: These systems include the 6C3HED lymphosarcoma, also known as the Gardner lymphosarcoma (6C3HED); the CA-755 adenocarcinoma (CA755); the P1534J lymphatic leukemia (P1534J); and the X5563 plasma cell myeloma (X5563). Each of these systems is described in detail below.
as §1, with “formula: […]” for “formula:”

[4] = tested on: P1534J lymphatic leukemia; assay: P1534J lymphatic leukemia tumor model; type: in vivo, mice (DBA/2); details: IP, Days 1,5,9
Excerpt: P1534J--The P1534J lymphocytic leukemia (solid form) was obtained in 1973 from the Jackson Laboratory (Bar Harbor, Me.). First passage tumor was stored in liquid nitrogen using standard techniques. Subsequent replenishment of the tumor bank with this tumor was accomplished from first passage tumor. The transplanted tumor was re-established from the tumor bank every six months or as needed. The tumor is maintained by serial passage once a week in DBA/2 mice (Charles River; Wilmington, Mass.).
as §1, §2, §3, §4

## Nc1ccn(C2O[C@H](CO)[C@@H](O)C2(F)F)c(=O)n1 (stereo partly drawn) [Example 1, 1-(4-Amino-2-oxo-1H-pyrimidin-1-yl)-2-desoxy-2,2-difluororibose]
[1]; 1.25 mg/kg
  Percent Inhibition of Tumor: 0%
  Toxic Deaths: 0/10
[1]; 2.5 mg/kg
  Percent Inhibition of Tumor: 44%
  Toxic Deaths: 0/10
[1]; 5.0 mg/kg
  Percent Inhibition of Tumor: 85%
  Toxic Deaths: 0/10
[1]; 10.0 mg/kg
  Percent Inhibition of Tumor: 86%
  Toxic Deaths: 0/10
[1]; 20.0 mg/kg
  Percent Inhibition of Tumor: 94%
  Toxic Deaths: 0/10
[2]; 0.05 mg/kg, Daily for 8 Days
  Percent Inhibition of Tumor: 0%
  Toxic Deaths: 0/10
[2]; 0.1 mg/kg, Daily for 8 Days
  Percent Inhibition of Tumor: 0%
  Toxic Deaths: 0/10
[2]; 0.2 mg/kg, Daily for 8 Days
  Percent Inhibition of Tumor: 0%
  Toxic Deaths: 0/10
[2]; 0.4 mg/kg, Daily for 8 Days
  Percent Inhibition of Tumor: 8%
  Toxic Deaths: 0/10
[2]; 1.25 mg/kg, Days 1,5,9
  Percent Inhibition of Tumor: 0%
  Toxic Deaths: 0/7
[2]; 2.5 mg/kg, Days 1,5,9
  Percent Inhibition of Tumor: 1%
  Toxic Deaths: 0/7
[2]; 5.0 mg/kg, Days 1,5,9
  Percent Inhibition of Tumor: 49%
  Toxic Deaths: 0/7
[2]; 10.0 mg/kg, Days 1,5,9
  Percent Inhibition of Tumor: 88%
  Toxic Deaths: 0/7
[2]; 20.0 mg/kg, Days 1,5,9
  Percent Inhibition of Tumor: 95%
  Toxic Deaths: 0/7
[3]
  activity in additional tumor test systems (in words): demonstrated activity in additional tumor test systems
[4]; 1.25 mg/kg
  Percent Inhibition of Tumor: 8%
  Toxic Deaths: 0/10
[4]; 2.5 mg/kg
  Percent Inhibition of Tumor: 30%
  Toxic Deaths: 0/10
[4]; 5.0 mg/kg
  Percent Inhibition of Tumor: 47%
  Toxic Deaths: 0/10
[4]; 10.0 mg/kg
  Percent Inhibition of Tumor: 71%
  Toxic Deaths: 2/10
[4]; 20.0 mg/kg
  Percent Inhibition of Tumor: 92%
  Toxic Deaths: 1/10
